For this experiment, the target named is T1, PDE4D5 (Homo sapiens, UniProt Q08499).
T1 construct: Using Full-Length Human PDE4 Isoforms; Long Forms PDE4D5, PDE4C3, PDE4B1 and Short Form PDE4B2; made in house; cytosol fraction of cell lysate
The experiment is described as follows: PDE assay, activation of PDE4D5 long form (Experiment 1). The note with it: for activation at 100 µM: 100 μM test compound, mean % increase in counts over basal activity. The format is biochemical. How it is done:
One suitable method of detecting whether or not a compound is capable of serving as an activator of a PDE4 long form is using a two-step radio-assay procedure described in Experiment 1. In summary, the method involves incubating a PDE4 long form with a test small molecule activator, together with [^3H]-labelled cAMP to assess alterations in the breakdown of cAMP to the 5′-adenosine monophosphate (5′-AMP) product. A sample of the reaction mixture from such an incubation is subsequently treated with snake venom 5′-nucleotidase to allow conversion of the nucleotide [^3H]-labelled 5′-AMP to the uncharged nucleoside [^3H]-labelled adenosine, which can be separated and quantified to assess PDE4 activity and the effect of the test compound (Thompson, W. J. and Appleman, M. M. Biochemistry 10: 311-316, 1971, with some modifications as described in: Marchmont, R. J. and Houslay, M. D. Biochem J. 187: 381-92, 1980).
Experiment 1: Measurement of Modulation of Enzyme Activity by PDE4 Long Form Activators of the Present Invention Using Full-Length Human PDE4 Isoforms; Long Forms PDE4D5, PDE4C3, PDE4B1 and Short Form PDE4B2 • (Marchmont, R. J. and Houslay, M. D. Biochem. J. 187: 381-92, 1980)
For transient transfection of exogenous PDE4 long isoforms, HEK 293 cells were transfected with pcDNA3.1 or pDEST^TM PDE4 expression vectors using Lipofectamine LTX/Plus reagent (Invitrogen) as outlined by the manufacturer.
Where stable cell lines were generated the clonal isolates were expanded to obtain cell lines that stably expressed the full-length human PDE4 long isoforms and the full length human PDE4B2 short isoform. These were called the HEK-PDE4D5, HEK-PDE4B1 and HEK-PDE4B2 cell lines, respectively.
HEK-PDE4D5 cells were seeded out in 100 mm plates and incubated at 37° C. in an atmosphere of 5% CO2, 95% air. Cell lysates were prepared using KHEM buffer [50 mM KCl, 10 mM EGTA, 50 mM HEPES (pH 7.2), 1.92 mM MgCl2].
To prepare the cell lysates, the 100 mm plates containing the cells were placed on ice and washed with ice-cold PBS (phosphate buffered saline, pH 7.4). KHEM buffer (500 μL) was added to the cells. Cells were then scraped off the plate and triturated using a needle (BD Microlance™ 0.8, 40 mm). The lysed cells were then centrifuged at 2000 rpm for 10 minutes to remove cell debris and the supernatant (cell lysate containing recombinant PDE4D5) was transferred to a fresh tube and kept on ice.
The cell lysate containing recombinant PDE4D5 was transferred into a centrifuge tube and placed into an ultracentrifuge (BECKMAN COULTER) and spun at high speed (100,000 g) for 30 minutes at 4° C. The cytosol fraction was then collected and its protein amount determined using a BCA protein assay.
PDE assays were performed in thin walled V-bottomed 96-well plates. The assays were performed at a final concentration of 10 mM Tris/5 mM MgCl2 plus PDE4D5 cell lysate cytosol fraction, containing over-expressed PDE4D5, with and without test compound. The lysate/compound mix were incubated together for 15 min at room temperature on an orbital shaker prior to addition of [^3H] cAMP (final concentration 1 μM [^3H] cAMP; Perkin Elmer) to a final volume of 50 μL per reaction. The reactions were then incubated for 10 minutes at 30° C., terminated by heating for 2 min at 95° C. and allowed to cool. Snake venom (12.5 μL of 1 mg/mL; Crotalus atrox, Sigma) was then added and the plates were agitated and incubated for a further 15 minutes at 30° C. Dowex ion exchange resin (Sigma, chloride form, 200-400 mesh; 200 μL; prepared as a 1:1 Dowex:water stock, thoroughly re-suspended and diluted 2:1 with ethanol) was then added to each well and the plates incubated for 15 min at room temperature on an orbital shaker ensuring sufficient agitation for resin suspension (550 RPM). The reaction mixture was then transferred to a 96 well filter plate (Millipore; 0.45 μm pore size) and filtered into a receiving 96-well plate to remove the dowex suspension. […]

Consider four molecules from patent publication US20260007680A1, “Compounds and Their Use as PDE4 Activators” (Mironid Limited, priority 2022, published 2026).

T1 sequence (Q08499 1-745 isoform Q08499-6): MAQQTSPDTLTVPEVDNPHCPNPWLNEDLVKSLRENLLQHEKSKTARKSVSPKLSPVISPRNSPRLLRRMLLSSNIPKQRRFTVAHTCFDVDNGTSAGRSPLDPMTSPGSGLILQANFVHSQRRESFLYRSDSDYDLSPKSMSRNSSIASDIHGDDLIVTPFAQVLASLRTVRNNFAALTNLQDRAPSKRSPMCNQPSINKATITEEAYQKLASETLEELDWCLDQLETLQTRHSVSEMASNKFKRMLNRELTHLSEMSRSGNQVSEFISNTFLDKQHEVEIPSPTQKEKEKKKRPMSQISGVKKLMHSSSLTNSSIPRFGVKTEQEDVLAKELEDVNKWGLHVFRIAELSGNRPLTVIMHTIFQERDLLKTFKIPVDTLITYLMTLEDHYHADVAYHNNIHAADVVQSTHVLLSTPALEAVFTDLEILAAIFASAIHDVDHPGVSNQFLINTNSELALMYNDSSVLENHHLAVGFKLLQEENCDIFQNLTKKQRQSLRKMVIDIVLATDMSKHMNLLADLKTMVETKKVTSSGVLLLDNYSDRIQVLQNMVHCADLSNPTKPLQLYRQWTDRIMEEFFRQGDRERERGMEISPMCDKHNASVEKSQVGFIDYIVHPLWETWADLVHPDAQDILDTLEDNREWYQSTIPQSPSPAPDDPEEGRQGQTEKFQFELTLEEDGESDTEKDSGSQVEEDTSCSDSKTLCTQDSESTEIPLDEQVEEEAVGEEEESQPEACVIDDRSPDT

Take `Cc1ccc(-c2nc3cc(C(=O)N[C@H]4CCOc5ccccc54)ccc3[nH]2)cn1` [Example 2, (S)—N-(chroman-4-yl)-2-(6-methylpyridin-3-yl)-1H-benzo[d]imidazole-5-carboxamide]: the activation at 100 µM is 115%.

Regarding `Cc1cncc(-c2nc3cc(C(=O)N[C@H]4CCOc5ccccc54)ccc3[nH]2)c1` [Example 4, (S)—N-(chroman-4-yl)-2-(5-methylpyridin-3-yl)-1H-benzo[d]imidazole-5-carboxamide], the activation at 100 µM turned out to be 140%. Besides, the “activation of PDE4D5 (FIG. 1)” value (concentration-response) is “concentration-dependent activation”.

The molecule `Cc1cncc(-c2nc3ccc(C(=O)N[C@H]4CCOc5ccccc54)cc3n2C)c1` [Example 28, (S)—N-(chroman-4-yl)-1-methyl-2-(5-methylpyridin-3-yl)-1H-benzo[d]imidazole-6-carboxamide] registered an activation at 100 µM of 45%.

Turning to `Cc1ccncc1-c1nc2cc(C(=O)N[C@H]3CCOc4ccccc43)ccn2n1` [Example 53, (S)—N-(chroman-4-yl)-2-(4-methylpyridin-3-yl)-[1,2,4]triazolo[1,5-a]pyridine-7-carboxamide], the activation at 100 µM was found to be 33%.
